Assay results from ChEMBL document CHEMBL6120946, “From Hit to Lead: Discovery of First-In-Class Furanone Glycoside D228 Derived from Chimonanthus salicifolius for the Treatment of Inflammatory Bowel Disease” (J Med Chem, 2024).
Calls of active or inactive are those of the source. The rule behind the calls is not given here.

Key:
Mus musculus [1] = assay: Antiinflammatory activity in DSS-induced male C57BL/6 mouse model of inflammatory bowel disease assessed as restoration of colon length at 40 mg/kg/day, po via gavage measured after 14 days relative to control; type: functional; details: time 14 day
[2] = Cytotoxicity against mouse Splenocyte by MTT assay; type: toxicity, cell-based; details: splenocytes
Mus musculus [3] = assay: Antiinflammatory activity in male C57BL/6 mouse model of inflammatory bowel disease assessed as recovery of DSS-induced body weight loss at 40 mg/kg/day, po via gavage measured after 14 days relative to control; type: functional; details: time 14 day
B-cell line = assay: Immunosuppressive activity in mouse B-lymphocyte assessed as reduction in LPS-induced cell proliferation incubated for 48 hrs; type: functional, cell-based
[4] = Immunosuppressive activity in mouse T-lymphocyte assessed as reduction in concanavalin A-induced cell proliferation incubated for 48 hrs; type: functional, cell-based
Mus musculus [5] = assay: Antiinflammatory activity in DSS-induced male C57BL/6 mouse model of inflammatory bowel disease assessed as inhibition of MPO expression at 50 to 100 microM/Kg, po by immunohistochemical analysis; type: functional, organism-based; details: dose 50-100 µM/Kg
[6] = Toxicity in female BALB/c mouse assessed as effect on Cl inorganic salt index at 0.5 g/Kg administered daily and measured after 5 weeks; details: in vivo, 500 mg/kg, 840 h
Mus musculus [7] = assay: Antiinflammatory activity in DSS-induced male C57BL/6 mouse model of inflammatory bowel disease assessed as downregulation of MyD88 expression at 50 to 100 microM/Kg by Western blot analysis; type: functional, organism-based; details: dose 50-100 µM/Kg
Mus musculus [8] = assay: Antiinflammatory activity in DSS-induced male C57BL/6 mouse model assessed as inhibition of IL-6 level in colon at 50 to 100 microM/Kg; type: functional, organism-based; details: dose 50-100 µM/Kg
[9] = Toxicity in male C57BL/6 mouse assessed as effect on CREA level at 0.5 g/Kg administered daily and measured after 5 weeks; details: in vivo, 500 mg/kg, 840 h
[10] = Toxicity in female BALB/c mouse assessed as effect on ALP level at 0.5 g/Kg administered daily and measured after 5 weeks; details: in vivo, 500 mg/kg, 840 h
Mus musculus [11] = assay: Antiinflammatory activity in DSS-induced male C57BL/6 mouse model assessed as inhibition of IL-22 level in colon at 50 to 100 microM/Kg; type: functional, organism-based; details: dose 50-100 µM/Kg
Mus musculus [12] = assay: Antiinflammatory activity in DSS-induced male C57BL/6 mouse model of inflammatory bowel disease assessed as amelioration of structural loss of colon at 50 to 100 microM/Kg by H and E staining based analysis; type: functional, organism-based; details: dose 50-100 µM/Kg
[13] = Toxicity in female BALB/c mouse assessed as effect on CREA level at 0.5 g/Kg administered daily and measured after 5 weeks; details: in vivo, 500 mg/kg, 840 h
[14] = Toxicity in female BALB/c mouse assessed as effect on GLU level at 0.5 g/Kg administered daily and measured after 5 weeks; details: in vivo, 500 mg/kg, 840 h
[15] = Toxicity in male C57BL/6 mouse assessed as effect on ALP level at 0.5 g/Kg administered daily and measured after 5 weeks; details: in vivo, 500 mg/kg, 840 h
[16] = Toxicity in male C57BL/6 mouse assessed as effect on Cl inorganic salt index at 0.5 g/Kg administered daily and measured after 5 weeks; details: in vivo, 500 mg/kg, 840 h
[17] = Toxicity in female BALB/c mouse assessed as effect on CK level at 0.5 g/Kg administered daily and measured after 5 weeks; details: in vivo, 500 mg/kg, 840 h
[18] = Selectivity ratio of CC50 for cytotoxicity against mouse Splenocyte to IC50 for immunosuppressive activity in mouse T-lymphocyte; type: toxicity; details: splenocytes (CC50) and T-lymphocytes (IC50)
Mus musculus [19] = assay: Antiinflammatory activity in DSS-induced male C57BL/6 mouse model assessed as increase in IL-10 level in colon at 50 to 100 microM/Kg; type: functional, organism-based; details: dose 50-100 µM/Kg
Mus musculus [20] = assay: Antiinflammatory activity in DSS-induced male C57BL/6 mouse model assessed as inhibition of TNF-alpha level in colon at 50 to 100 microM/Kg; type: functional, organism-based; details: dose 50-100 µM/Kg
[21] = Toxicity in male C57BL/6 mouse assessed as effect on GLU level at 0.5 g/Kg administered daily and measured after 5 weeks; details: in vivo, 500 mg/kg, 840 h
[22] = Toxicity in male C57BL/6 mouse assessed as effect on CK level at 0.5 g/Kg administered daily and measured after 5 weeks; details: in vivo, 500 mg/kg, 840 h
Mus musculus [23] = assay: Antiinflammatory activity in DSS-induced male C57BL/6 mouse model of inflammatory bowel disease assessed as amelioration of crypts disruption at 50 to 100 microM/Kg by H and E staining based analysis; type: functional, organism-based; details: dose 50-100 µM/Kg
Mus musculus [24] = assay: Antiinflammatory activity in DSS-induced male C57BL/6 mouse model assessed as inhibition of IL-17A level in colon at 50 to 100 microM/Kg; type: functional, organism-based; details: dose 50-100 µM/Kg
Mus musculus [25] = assay: Antiinflammatory activity in DSS-induced male C57BL/6 mouse model of inflammatory bowel disease assessed as decrease in p38 phosphorylation level at 50 to 100 microM/Kg by Western blot analysis; type: functional, organism-based; details: dose 50-100 µM/Kg
Mus musculus [26] = assay: Antiinflammatory activity in DSS-induced male C57BL/6 mouse model of inflammatory bowel disease assessed as upregulation of ZO-1 expression in colon at 50 to 100 microM/Kg by immunohistochemical analysis; type: functional, organism-based; details: dose 50-100 µM/Kg
Mus musculus [27] = assay: Antiinflammatory activity in DSS-induced male C57BL/6 mouse model of inflammatory bowel disease assessed as downregulation of TRAF6 expression at 50 to 100 microM/Kg by Western blot analysis; type: functional, organism-based; details: dose 50-100 µM/Kg
[28] = Selectivity ratio of CC50 for cytotoxicity against mouse Splenocyte to IC50 for immunosuppressive activity in mouse B-lymphocyte; type: toxicity; details: splenocytes (CC50) and B-lymphocytes (IC50)
[29] = Toxicity in female BALB/c mouse assessed as effect on Na inorganic salt index at 0.5 g/Kg administered daily and measured after 5 weeks; details: in vivo, 500 mg/kg, 840 h
Mus musculus [30] = assay: Antiinflammatory activity in DSS-induced male C57BL/6 mouse model assessed as effect on JNK phosphorylation level at 50 to 100 microM/Kg by Western blot analysis; type: functional, organism-based; details: dose 50-100 µM/Kg
[31] = Toxicity in male C57BL/6 mouse assessed as effect on Na inorganic salt index at 0.5 g/Kg administered daily and measured after 5 weeks; details: in vivo, 500 mg/kg, 840 h
Mus musculus [32] = assay: Antiinflammatory activity in DSS-induced male C57BL/6 mouse model of inflammatory bowel disease assessed as amelioration of infiltration of inflammatory cells at 50 to 100 microM/Kg by H and E staining based analysis; type: functional, organism-based; details: dose 50-100 µM/Kg

For COC(=O)[C@H]1O[C@@H](OC2=C(C)OC(=C(C)C)C2=O)[C@H](OC(C)=O)[C@@H](OC(C)=O)[C@@H]1OC(C)=O, the Activity (Mus musculus [1]) was 9.5%, the CC50 [2] was 212 µM and the Activity (Mus musculus [3]) was 44.8%. For the same compound, the IC50 (B-cell line) was > 100 µM and the IC50 [4] was > 100 µM.

With CC1=C(O)C(=O)C(=C2CCNCC2)O1 the CC50 [2] was 205 µM, the IC50 (B-cell line) was > 100 µM and the IC50 [4] was > 100 µM.

With CC(C)=C1OC(C)=C(O)C1=O the Activity (Mus musculus [5]) was “Active”, the Activity [6] was “Non-toxic” and the Activity (Mus musculus [7]) was “Active”. For the same compound, the Activity (Mus musculus [8]) was “Active”, the Activity [9] was “Non-toxic” and the Activity [10] was “Non-toxic”. The Activity (Mus musculus [11]) was “Active”, the Activity (Mus musculus [12]) was “Active” and the Activity [13] was “Non-toxic”. For the same compound, the Activity [14] was “Non-toxic”, the CC50 [2] was 110 µM and the Activity [15] was “Non-toxic”. The Activity [16] was “Non-toxic”, the Activity [17] was “Non-toxic” and the selectivity ratio [18] was 1.82. The Activity (Mus musculus [19]) was “Active”, the Activity (Mus musculus [20]) was “Active” and the Activity [21] was “Non-toxic”. For the same compound, the Activity [22] was “Non-toxic”, the IC50 (B-cell line) was 23.1 µM and the Activity (Mus musculus [23]) was “Active”. For the same compound, the Activity (Mus musculus [24]) was “Active”, the Activity (Mus musculus [25]) was “Active” and the Activity (Mus musculus [26]) was “Active”. The Activity (Mus musculus [27]) was “Active”, the IC50 [4] was 62.1 µM and the selectivity ratio [28] was 4.77. For the same compound, the Activity [29] was “Non-toxic”, the Activity (Mus musculus [30]) was “inactive” and the Activity [31] was “Non-toxic”. The Activity (Mus musculus [32]) was “Active”.

CC(=O)OC[C@H]1O[C@@H](OC2=C(C)OC(=C(C)C)C2=O)[C@H](OC(C)=O)[C@@H](OC(C)=O)[C@H]1OC(C)=O gave an Activity (Mus musculus [1]) of 25.4%, a CC50 [2] of 183 µM and a selectivity ratio [18] of 1.06. For the same compound, the Activity (Mus musculus [3]) was 44.8%, the IC50 (B-cell line) was > 100 µM and the IC50 [4] was 201 µM.
